Measurements published in ChEMBL document CHEMBL4152235, “Synthesis, anionophoric activity and apoptosis-inducing bioactivity of benzimidazolyl-based transmembrane anion transporters” (Eur J Med Chem, 2018).
pEC50, pIC50: −log10 of the molar value. Calls of active or inactive are those of the source. The calls are words filed in the database; no cut-off is given here.

What was measured:
HepG2 [1] = experiment: Cytotoxicity against human HepG2 cells assessed as reduction in cell viability at 50 uM after 48 hrs by MTT assay relative to control; assay type: functional; conditions: HepG2, 48 h
MCF7 [2] = experiment: Cytotoxicity against human MCF7 cells assessed as reduction in cell viability at 50 uM after 48 hrs by MTT assay relative to control; assay type: functional; conditions: MCF7, 48 h
HeLa [3] = experiment: Cytotoxicity against human HeLa cells assessed as reduction in cell viability at 50 uM after 48 hrs by MTT assay relative to control; assay type: functional
A549 [4] = experiment: Cytotoxicity against human A549 cells assessed as reduction in cell viability at 50 uM after 48 hrs by MTT assay relative to control; assay type: functional; conditions: A549, 48 h
MCF7 [5] = experiment: Cytotoxicity against human MCF7 cells assessed as reduction in cell viability after 48 hrs by MTT assay; assay type: functional, cell-based; conditions: MCF7, 48 h
HepG2 [6] = experiment: Cytotoxicity against human HepG2 cells assessed as reduction in cell viability after 48 hrs by MTT assay; assay type: functional, cell-based; conditions: HepG2, 48 h
A549 [7] = experiment: Cytotoxicity against human A549 cells assessed as reduction in cell viability after 48 hrs by MTT assay; assay type: functional, cell-based; conditions: A549, 48 h
HeLa [8] = experiment: Cytotoxicity against human HeLa cells assessed as reduction in cell viability after 48 hrs by MTT assay; assay type: functional, cell-based
L02 = experiment: Cytotoxicity against human LO2 cells assessed as reduction in cell viability after 48 hrs by MTT assay; assay type: cell-based; conditions: L02, 48 h
[9] = (§1) Ionophoric activity across pyranine dye encapsulated pH 7 egg yolk L-alpha-phosphatidylcholine-based liposomal membranes assessed as chloride ion transport by measuring induction of pH discharge after 20 mins in presence of NaCl loaded external vesicles by fluorescence method; conditions: for pEC50: read-out: EC50
[10] = Binding affinity to chloride ion at 1.5 x 10^-5M using tetra(n-butyl)ammonium chloride measured after 5 mins by spectrophotometric titration method
[11] = Ionophoric activity across pyranine dye encapsulated pH 7 egg yolk L-alpha-phosphatidylcholine-based liposomal membranes assessed as chloride ion transport by measuring induction of pH discharge after 20 mins in presence of NaCl loaded external vesicles by fluorescence method relative to m-Bimbe
[12] = Binding affinity to chloride ion assessed as 1:1 compound-Cl- complex formation at 4.1 mM using tetra(n-butyl)ammonium chloride by ESI MS spectrometric method
HeLa [13] = experiment: Ionophoric activity across human HeLa cells assessed as chloride ion efflux at 10 uM after 3 hrs by acridine orange staining based fluorescence microscopic analysis; assay type: cell-based
HeLa [14] = experiment: Ionophoric activity across human HeLa cells assessed as chloride ion efflux up to 10 uM after 2 hrs by MQAE dye based fluorescence assay; assay type: cell-based
MCF7 [15] = experiment: Ionophoric activity across human MCF7 cells assessed as chloride ion efflux up to 10 uM after 2 hrs by MQAE dye based fluorescence assay; assay type: cell-based
[16] = Binding affinity to chloride ion at 1.5 x 10^-5M using tetra(n-butyl)ammonium chloride measured after 2 mins by spectrophotometric titration method
[17] = as §1, with “measuring initial rate constant for” for “measuring”, “discharge at 6.25 x 10^-2 mol%” for “discharge”, “method (reference value: 5.03 +/- 1.02 10^-3/min)” for “method”
[18] = as §1, with “measuring initial rate constant for” for “measuring”, “discharge at 2.50 x 10^-1 mol%” for “discharge”, “method (reference value: 5.03 +/- 1.02 10^-3/min)” for “method”
[19] = as §1, with “measuring initial rate constant for” for “measuring”, “discharge at 7.81 x 10^-3 mol%” for “discharge”, “method (reference value: 5.03 +/- 1.02 10^-3/min)” for “method”
[20] = as §1, with “measuring initial rate constant for” for “measuring”, “discharge at 1.56 x 10^-2 mol%” for “discharge”, “method (reference value: 5.03 +/- 1.02 10^-3/min)” for “method”
[21] = as §1, with “measuring initial rate constant for” for “measuring”, “discharge at 3.13 x 10^-2 mol%” for “discharge”, “method (reference value: 5.03 +/- 1.02 10^-3/min)” for “method”
[22] = as §1, with “measuring initial rate constant for” for “measuring”, “discharge at 1.25 x 10^-1 mol%” for “discharge”, “method (reference value: 5.03 +/- 1.02 10^-3/min)” for “method”

Row | EC50 [9] | pEC50 [9] | fold change (FC) [11] | Compound | inhibition at 50 µM (HepG2 [1]) | inhibition at 50 µM (MCF7 [2]) | inhibition at 50 µM (HeLa [3]) | inhibition at 50 µM (A549 [4]) | pIC50 (MCF7 [5]) | pIC50 (HepG2 [6]) | pIC50 (A549 [7]) | pIC50 (HeLa [8]) | pIC50 (L02) | other results
1 | – | – | – | Cn1c(-c2cccc(-c3nc4ccccc4n3C)c2)nc2ccccc21 | 49.1% | 23.3% | 43.2% | 22.2% | – | – | – | – | – | –
2 | – | – | – | Brc1ccc2nc(-c3cccc(-c4nc5ccc(Br)cc5[nH]4)c3)[nH]c2c1 | 93.1% | 93.5% | 98% | 92.6% | 5.01 | 4.92 | 4.66 | 4.68 | 4.75 | –
3 | 0.32 mol% | 5.37 | 20 | COc1cc(-c2nc3ccc([N+](=O)[O-])cc3[nH]2)cc(-c2nc3ccc([N+](=O)[O-])cc3[nH]2)c1 | 96.7% | 96.3% | 85.3% | 67.7% | 4.77 | 5.05 | 4.73 | 6.00 | 4.58 | Activity [9]: Dose-dependent effect; Ka [10]: 1.56 ×10³ /M; Activity [12]: Active
4 | – | – | – | Fc1ccc2nc(-c3cccc(-c4nc5ccc(F)cc5[nH]4)c3)[nH]c2c1 | 78.9% | 26.4% | 83.5% | 33.6% | < 4.00 | 4.76 | < 4.00 | 4.94 | 4.68 | –
5 | – | – | – | COc1cccc2c1C(=O)c1c(O)c3c(c(O)c1C2=O)C[C@@](O)(C(=O)CO)C[C@@H]3O[C@H]1C[C@H](N)[C@H](O)[C@H](C)O1 [DOXORUBICIN] | – | – | – | – | 6.10 | 5.68 | 6.22 | 6.30 | 6.96 | –
6 | – | – | – | c1ccc2[nH]c(-c3ccc(-c4nc5ccccc5[nH]4)cc3)nc2c1 | 17.4% | 63.3% | 59.6% | 53.1% | – | – | – | – | – | –
7 | – | – | – | c1ccc(-c2nc3ccccc3[nH]2)c(-c2nc3ccccc3[nH]2)c1 | 3.6% | 11.6% | 24.9% | -6% | – | – | – | – | – | –
8 | 6.47 mol% | 4.07 | – | c1cc(-c2nc3ccccc3[nH]2)cc(-c2nc3ccccc3[nH]2)c1 | 69.5% | 31.9% | 96.5% | 91.1% | < 4.00 | 4.69 | 4.41 | 5.07 | 4.70 | Activity (HeLa [13]): Active; Activity (HeLa [14]): Active; Activity (MCF7 [15]): Active; Ka [16]: 2.48 ×10³ /M; Activity [12]: Active
9 | – | – | – | Clc1ccc2nc(-c3cccc(-c4nc5ccc(Cl)cc5[nH]4)c3)[nH]c2c1 | 98.4% | 90.5% | 95.6% | 82.4% | 4.59 | 5.04 | 4.63 | 4.97 | 4.86 | –
10 | – | – | – | c1ccc(-c2nc3ccccc3[nH]2)cc1 | 11.6% | 25.5% | 8.1% | 1.2% | – | – | – | – | – | –
11 | 8.19 ×10⁻³ mol% | 6.96 | 790 | O=[N+]([O-])c1ccc2nc(-c3cccc(-c4nc5ccc([N+](=O)[O-])cc5[nH]4)c3)[nH]c2c1 | 15.4% | 47.4% | 59.2% | 52.1% | – | – | – | – | – | Ka [16]: 2.22 ×10³ /M
12 | 0.15 mol% | 5.70 | 43 | COc1cc(-c2nc3ccc(C(F)(F)F)cc3[nH]2)cc(-c2nc3ccc(C(F)(F)F)cc3[nH]2)c1 | 101% | 98.9% | 91.8% | 100% | 4.92 | 4.97 | 5.09 | 5.08 | 5.00 | K [17]: 8.52 ×10⁻² /min; K [18]: 1.47 ×10⁻¹ /min; Activity [9]: Dose-dependent effect; Ka [10]: 3.53 ×10³ /M; K [19]: 3.23 ×10⁻² /min; K [20]: 4.33 ×10⁻² /min; K [21]: 6.31 ×10⁻² /min; Activity (HeLa [13]): Active; Activity (HeLa [14]): Active; Activity (MCF7 [15]): Active; K [22]: 1.16 ×10⁻¹ /min; Activity [12]: Active
13 | 9.59 ×10⁻² mol% | 5.90 | 67 | FC(F)(F)c1ccc2nc(-c3cccc(-c4nc5ccc(C(F)(F)F)cc5[nH]4)c3)[nH]c2c1 | 100% | 98.8% | 100% | 99.3% | 4.89 | 5.18 | 5.05 | 5.10 | 4.96 | Activity (HeLa [13]): Active; Activity (HeLa [14]): Active; Activity (MCF7 [15]): Active; Ka [16]: 4.52 ×10³ /M
